Columns and labels:
[1] = test system: 12 BioMAP® Diversity Plus human cell systems; assay: BioMAP Diversity PLUS phenotypic profiling in 12 primary human cell and co-culture systems; assay type: cell-based
Description: Twelve primary human cell and co-cultures assays were used to assess the effects of dextran sulfate on clinically-relevant protein biomarkers of inflammation, cell growth and fibrosis as part of the quality controlled BioMAP® Diversity PLUS, commercially available service (Eurofins DiscoverX Corporation, Freemont, CA, USA; for full details https://www.discoverx.com). Dextran sulfate was tested in these assays at four concentrations: 4000 nMw 1300 nMw 400 nM and 150 nM. Human primary cells employed in the BioMAP® systems were used at passage 4 or earlier, derived from multiple donors (n=2 to 6), commercially purchased and handled according to the recommendations of the manufacturers. Human blood derived CD14+ monocytes were differentiated into macrophages in vitro before being added to the IMphg system (Eurofins DiscoverX Corporation).
The cell types and stimuli used in each assay system were as follows: 3C system [Human umbilical vein endothelial cells (HUVEC)+(IL-1β, TNFα and IFNγ)], 4H system [HUVEC+(IL-4 and histamine)], LPS system [Peripheral blood mononuclear cells (PBMC) and HUVEC+LPS (TLR4 ligand)], SAg system [PBMC and HUVEC+TCR ligands], BT system [CD19+ B cells and PBMC+(α-IgM and TCR ligands)], BF4T system [bronchial epithelial cells (BEC) and human neonatal dermal fibroblasts (HDFn)+(TNFα and IL-4)], BE3C system [BEC+(IL-1β, TNFα and IFNγ)], CASM3C system [coronary artery smooth muscle cells (CASMC)+(IL-1β, TNFα and IFNγ)], HDF3CGF system [HDFn+(IL-1β, TNFα, IFNγ, EGF, bFGF and PDGF-BB)], KF3CT system [keratinocytes and HDFn+(IL-1β, TNFα, IFNγ and TGFβ)], MyoF system [differentiated lung myofibroblasts+(TNFα and TGFβ)] and IMphg system [HUVEC and M1 macrophages+Zymosan (TLR2 ligand)].
Assays were derived from either single cell types or co-culture systems. Adherent cell types were cultured in 96 or 384-well plates until confluence, followed by the addition of PBMC (SAg and LPS systems). […] Test agents prepared in either DMSO (small molecules; final concentration 0.1%) or PBS (biologics) were added at the indicated concentrations 1 h before stimulation, and cells remained in culture for 24 h or as otherwise indicated (48 h, MyoF system; 72 h, BT system (soluble readouts); 168 h, BT system (secreted IgG)). […] Soluble factors from supernatants were quantified using either HTRF® detection, bead-based multiplex immunoassay or capture ELISA. Overt adverse effects of dextran sulfate on cell proliferation and viability (cytotoxicity) were detected by sulforhodamine B (SRB) staining for adherent cells, and alamarBlue® reduction for cells in suspension. For proliferation assays, individual cell types were cultured at subconfluence and measured at time points optimized for each system (48 h: 3C and CASM3C systems; 72 h: BT and HDF3CGF systems; 96 h: SAg system). Cytotoxicity for adherent cells was measured by SRB (24 h: 3C, 4H, LPS, SAg, BF4T, BE3C, CASM3C, HDF3CGF, KF3CT, and IMphg systems; 48 h: MyoF system), and by alamarBlue® staining for cells in suspension (24 h: SAg system; 42 h: BT system) at the time points indicated.
Biomarker measurements in dextran sulfate-treated samples were divided by the average of the control samples (at least 6 vehicle controls from the same plate) to generate a ratio that was then log10 transformed. Significance prediction envelopes were calculated using historical vehicle control data at a 95% confidence interval. […]

[2] = test system: Human Schwann cells (ATCC CRL-2884™); assay: Gene expression study in cultured human Schwann cells (microarray, IPA network analysis); assay type: cell-based; details: 0.01 mg/ml, 48 hours
Description: Human Schwann cells (ATCC CRL-2884™) were cultured in 25 cm^2 culture flasks coated with poly-d-lysine and laminin) in high-glucose DMEM with 10% fetal bovine serum (FBS) (n=8) and incubated at 37° C./5% CO2. Twenty-four house after seeding (Day 0) cells were treated once with either dextran sulfate (0.01 mg/ml in DMEM) or culture media. After 48 hours with treatment, the media were removed and cells were harvested in 2.5 ml Trizol:Water (4:1) solution containing 0.5 ml of chloroform at room temperature (RT). The flasks were inspected under the microscope to ensure full removal of cells. The collected lysates were stored at −80° C.
Lysates were left to equilibrate for 5 minutes at room temperature to permit the complete dissociation of nucleoprotein complexes. 1 ml lysate was removed from each sample and 200 μL of chloroform was added to each and the tube was shaken vigorously. Samples were stored at room temperature for 2-3 minutes and subsequently centrifuged at 12,000×g/15 min at 4° C. The mixture separated into 3 layers: a lower red phenol-chloroform phase, an interphase and a colorless upper aqueous phase. The top % of the aqueous phase (containing the RNA) was transferred to a new clean Eppendorf tube. The RNA was precipitated from the aqueous phase by adding an equal amount of 100% ethanol. The precipitated RNA was fixed onto a Spin Cartridge, washed twice and dried. The RNA was eluted in 50 μL warm RNase-Free Water. The amount and quality of the purified RNA was measured by Nanodrop. The RNA was stored at −80° C. before transfer to Source Bioscience for Gene Array analysis.
The background corrected expression data from each sample were downloaded into a separate file. The background corrected signal was log2 transformed for all samples for statistical analysis. To reduce the false discovery rate in the samples, the signals that were below ‘expression level’ were removed. The ‘below expression’ level was set at 5 for the log2 transformed expression values. (The expression value of the MAPT gene, which is not normally expressed in Schwann cells, was <5. However, the expression of usual ‘control’ gene ACTB (A_32_P137939; ACTB) was comfortably above 5).
MetaboAnalyst (Chong and Xia, MetaboAnalystR: an R package for flexible and reproducible analysis of metabolomics data, Bioinformatics 34(24): 4313-4314 (2018)) was used to analyze the gene expression profiles. […]
Additionally, a preliminary analysis was carried out to screen out genes that were not differentially expressed between any combinations of the three datasets. […] The remaining probe sets were analyzed for fold change and significance using Volcano plots (Qlucore, Lund, Sweden). […]

[3] = Serum total bilirubin in patients before and after dextran sulfate administration; assay type: in vivo; details: human patients with a neurological disease, 2 mg/kg subcutaneous once a week for ten weeks, week 10 vs week 0, p<0.05, FIG. 1
Description: Dextran sulfate (Tikomed A B, Viken, Sweden, WO 2016/076780) was administered at 2 mg/kg by […] subcutaneous injection once a week for ten weeks to human patients suffering from a neurological disease.
Peripheral venous blood samples were collected from patients before (week 0) and after dextran sulfate administration (week 5 and week 10) after at least 15 minutes of complete rest, using the standard tourniquet procedure, from the antecubital vein into a single VACUETTE® polypropylene tube containing serum separator and clot activator (Greiner-Bio One GmbH, Kremsmunster, Austria). After 30 mins at room temperature (20-25° C.), blood withdrawals were centrifuged at 1,890×g for 10 min to get serum aliquots.
A serum aliquot of about 300 μl was light-protected and then processed to extract fat-soluble metabolites using a method described in detail (Lazzarino et al., Single-step preparation of selected biological fluids for the high performance liquid chromatographic analysis of fat-soluble vitamins and antioxidants, J Chromatogr A. 2017; 1527: 43-52). Briefly, samples were supplemented with 1 ml of HPLC-grade acetonitrile, vigorously vortexed for 60 sec and incubated at 37° C. for 1 h in a water bath under agitation to allow the full extraction of lipid soluble compounds. […]

[4] = protein level, BioMAP Diversity Plus

Dextran sulfate
overall analysis of the responses of the 12 model systems ([1]; 150-4000 nM, FIG. 3): modulated inflammatory and immunoregulatory cytokines and molecules, tissue remodeling pathways (including activation of matrix degrading enzymes) and hemostasis activity | cytotoxicity (SRB staining / alamarBlue reduction) ([1]; all human culture systems evaluated, 150, 400, 1300 and 4000 nM): no cytotoxicity evident | CXCL9 levels [1, 4]: reduced levels | CXCL10 levels [1, 4]: reduced levels | CXCL11 levels [1, 4]: reduced levels | effect on inflammatory genes (molecular network analysis) ([2]; FIG. 5B): resolution of the normal inflammatory response | expression of the anti-fibrotic proteoglycan decorin ([2]; TGFβ-regulated gene network): upregulating | share of molecules of the TGFβ-regulated fibrosis network whose expression was regulated ([2]; 14 of 165 molecules, p<0.001): 8.5% | number of molecules of the TGFβ-regulated mechanistic network responsible for fibrosis whose expression was regulated ([2]; of 165 molecules, p<0.001): 14 | circulating levels of total bilirubin (free bilirubin + conjugated bilirubin) [3]: significant time-dependent decrease
